Test results published in patent publication US20040071656A1, “Modulation of heat-shock-protein-based immunotherapies” (priority 2001, published 2004).
No end group written: not given here. *: point of attachment. FITC = O=C1OC2(c3ccc(O)cc3Oc3cc(O)ccc32)c2ccc(NC(=S)*)cc21

How the values were obtained:
[1] = molecular target: T1, exoplasmic domain of human CD40 (GST-CD40) (Homo sapiens, UniProt P25942); test: GST-CD40 binding and competition assay with recombinant Hsp70 and its domains
T1 construct: The cDNA for the exoplasmic domain of CD40 (amino acids 20-212); made in house; host or cells: E. coli, pGEX-2T
T1 sequence (P25942 20-212): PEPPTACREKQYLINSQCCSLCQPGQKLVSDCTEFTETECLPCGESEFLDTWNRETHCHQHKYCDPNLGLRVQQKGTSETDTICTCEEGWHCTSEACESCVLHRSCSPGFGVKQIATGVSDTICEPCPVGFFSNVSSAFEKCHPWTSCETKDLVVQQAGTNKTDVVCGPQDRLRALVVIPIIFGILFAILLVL
Procedure: For binding assays with recombinant Hsp70 and its domains, 3 μM His6-Hsp70 or its His6-tagged domains were incubated with 2 mM ATP, 2 mM ADP or 2 mM ADP and 28 μM peptide C in 50 μl binding buffer (10 mM MOPS/KOH, pH 7.2, 150 mM KCl and 3 mM MgCl2) for 30 min at 37° C. In competition experiments binding was probed with either a 10-fold excess of Hsp70, the two domains, or DnaK, or with a 5-fold excess of Hip or Bag 1 for 10 min at 0° C. To this end, Hsp70, N70, C70 and DnaK were preincubated with ADP, ATP and peptide C as described above. For comparison of CD40 binding of Hsp70 and its N-terminal domain, Hsp70 was preincubated in the presence or absence (mock treatment) of a 30-fold molar excess of peptide C. 3 μM of GST or GST-CD40 was added to the samples and incubated for 20 min at 16° C. For titration of peptide C, 5- to 50-fold excess of peptide C (15-150 μM) was added to the preincubation of Hsp70. Thereafter the samples were combined with 20 μl of 1% BSA-treated Glutathione Sepharose 4 Fast Flow and incubated in the presence of 2 mM DTT for another 20 min at 16° C. Unbound proteins were removed by washing the beads three times with 1 ml PBS, and immobilized proteins eluted with 30 μl elution buffer for 20 min at 22° C. 10 μl of the eluates were subjected to SDS-PAGE and analyzed by immunoblotting using a Penta-His-antibody (Quiagen). Blot signals were quantified by Quantity One (Biorad).
Details for FIG. 3. Binding of Hsp70 to CD40 is direct and depends on ADP. A. Hela-cell lysates were incubated with GST (control), or GST-CD40 in the amounts indicated. Thereafter samples were affinity purified on glutathione-Sepharose as outlined in Experimental Procedures, subjected to SDS-PAGE and analyzed by immunoblotting with antibodies directed against Hsc70 and Hsp70 (upper lanes), and against Hsp90 (lower lanes). B. Human recombinant His6-tagged Hsp70 was incubated with ATP, ADP, or an excess of peptide C, followed by addition of GST-CD40 or GST alone. After affinity purification samples were analyzed by immunoblotting as described in A, using antibodies directed against the His6-tag. C. Recombinant human His6-tagged Hsp70 was incubated with peptide C, either in the presence or absence of ADP. The reactions were then incubated with ANA1-cell lysates as described in Experimental Procedures. Protein bound to Hsp70 was analyzed by affinity purification on Ni-NTA-agarose and immunoblotting with antibodies directed against CD40.
Details for FIG. 4. Hsp70 binding to CD40 is mediated by the N-terminal ATPase domain and is competed by Hip. A. Human His6-tagged Hsp70, its N- or C-terminal domains, or recombinant bacterial DnaK was incubated either with GST-CD40, or with GST. B. Recombinant DnaK was incubated with ATP, ADP, or an excess of peptide C, followed by addition of GST-CD40 or GST alone. C. His6-tagged N-terminal domain of Hsp70 (N70) was incubated in the presence of ATP or ADP, followed by incubation with a 10-fold molar excess of Hsp70 in the presence of ADP or ATP. D: Recombinant human His6-tagged Hsp70 protein was incubated with a 5-fold molar excess of either recombinant Hip protein or Bag-1, and with GST-CD40 or GST as a control. Bound protein was analyzed after affinity purification on glutathione-Sepharose by immunoblotting with an antibody directed against the N-terminal His6-tags or with an antibody directed against DnaK.
Details for FIG. 5. Peptide substrate stimulates Hsp70 binding to CD40. A. His6-tagged Hsp70 was incubated with increasing concentrations of peptide C as indicated in the Figure, and binding to GST-CD40 analyzed by immunoblotting with antibodies directed against the His6-tag. The lower panel is a quantitation of the data. B. Equivalent concentrations (3 μM) of His6-tagged Hsp70 (in the presence of a 30-fold molar excess of peptide C) or His6-tagged N70 was incubated with GST-CD40, and bound protein was analyzed as described above.

human CD40 [2] = molecular target: T2, human CD40 (Homo sapiens, UniProt P25942); test: Uptake of peptide C-FITC in HEK293T-CD40 cells, confocal microscopy; type: cell-based; conditions: 0.5 μM protein, 5 μM peptide C-FITC, ADP, 30 min 0° C. then 15 min 37° C.
T2 construct: CD40 full-length cDNA was cloned by PCR; expressed in transfected cells
T2 sequence (P25942 21-277): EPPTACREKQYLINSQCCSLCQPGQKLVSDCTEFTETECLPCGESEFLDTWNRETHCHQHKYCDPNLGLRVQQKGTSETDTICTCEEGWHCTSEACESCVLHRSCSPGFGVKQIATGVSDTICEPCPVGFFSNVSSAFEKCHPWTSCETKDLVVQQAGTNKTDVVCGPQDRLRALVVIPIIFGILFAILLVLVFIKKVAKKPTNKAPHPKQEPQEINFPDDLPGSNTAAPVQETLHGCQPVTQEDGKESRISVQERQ
Procedure: For experiments to study uptake of Hsp70/peptide C-FITC complex, HEK293T-CD40 and HEK293T-MCAT cells were seeded on collagen-coated cover slips 24 h prior to the experiment. For complex formation Hsp70, its N-terminal domain (N70) or its C-terminal domain (C70) were preincubated with a 10-fold molar excess of peptide C-FITC for 30 min at 37° C., as described above for the biotinylated proteins. HEK293T-CD40 and HEK293T-MCAT were incubated with 0.5 μM of Hsp70, N70 or C70, preincubated with 2 mM ADP and 5 μM peptide C-FITC, or 5 μM peptide C-FITC alone for 30 min on ice. Thereafter the cells were washed three times with medium, incubated for 15 min at 37° C., and fixed, embedded in Fluoromount-G and analyzed by confocal microscopy (LSM 510, Zeiss).
Next, the binding of Hsp70-peptide complex to CD40 was studied, which results in the uptake of peptide. To this end, HEK293T-CD40 cells and HE293T-MCAT cells (not expressing CD40) were incubated with a fluorescent (FITC) derivative of peptide C for 30 min at 0° C. in the presence of ADP, with or without Hsp70 or its two domains. After removal of excess material, the cells were incubated at 37° C. for 15 min, fixed and then analyzed by fluorescence microscopy. […] (FIG. 6B, panel 1). […] Neither did HEK293T-MCAT control cells give rise to a signal under any of the conditions tested (not shown). We conclude that the specific interaction of CD40 with Hsp70-peptide complex mediates the uptake of peptide.
Details for FIG. 6. Binding of Hsp70 complex to CD40-expressing HEK293T cells induces signaling via p38 and causes peptide uptake. A. HEK293T-cells, stably transfected with cDNA encoding human CD40 or the unrelated membrane protein murine cationic amino acid transporter (MCAT) were incubated for 20 min at 37° C. with CD40L or with Hsp70, C70, N70, bacterial DnaK either in the presence of ADP or AMPPNP, or buffer alone. Thereafter cells were washed, solubilized in SDS-sample buffer, and analyzed by immunoblotting with antibodies directed against phosphorylated (active) p38. Blots were also developed with an antibody against tubulin in order to control for equal loading. B. Cells were incubated at 0° C. for 30 min with recombinant human Hsp70, N70, or C70, all in the presence FITC-labeled peptide, or with the FITC-labeled peptide alone. Thereafter cells were washed, incubated for 15 min at 37° C., and processed for fluorescence microscopy. Upper left panel: Hsp70, upper right panel: FITC-labeled peptide alone, lower left panel: C70, lower right panel: N70. Only cells stably transfected with CD40 are shown. Cell boundaries are emphasized with broken lines.

[3] = molecular target: T1, exoplasmic domain of human CD40 (GST-CD40); test: GST-CD40 pull-down of endogenous heat shock proteins from Hela cell lysate; type: binding; conditions: 80 or 400 pmol GST-CD40, immunoblot
Procedure: Binding assays with GST-CD40. For binding of endogenous Hsp70 and Hsc70 from Hela cell lysate, Hela cells were lysed as described above and centrifuged at 100,000 g at 4° C. for 1 h. 20 μl bed volume of Glutathione Sepharose 4 Fast Flow (Amersham Pharmacia) per sample were preincubated with 80 pmol or 400 pmol of GST or GST-CD40 fusion protein in 50 μl binding buffer. Unbound protein was removed by washing three times with PBS. The beads were treated with 1% BSA/PBS to avoid non-specific binding, and than incubated with 150 μl of Hela cell lysate in the presence of 2 mM DTT for 20 min at 16° C. […] 10 μl of the eluates was subjected to SDS-PAGE and analyzed by immunoblotting using an anti-Hsc/Hsp70 antibody and an anti-Hsp90: antibody (SPA822 and SPA835, Stressgen). […]
Details for FIG. 3. […] Thereafter samples were affinity purified on glutathione-Sepharose as outlined in Experimental Procedures, subjected to SDS-PAGE and analyzed by immunoblotting with antibodies directed against Hsc70 and Hsp70 (upper lanes), and against Hsp90 (lower lanes). […] After affinity purification samples were analyzed by immunoblotting as described in A, using antibodies directed against the His6-tag. […] Protein bound to Hsp70 was analyzed by affinity purification on Ni-NTA-agarose and immunoblotting with antibodies directed against CD40.

human CD40 [4] = molecular target: T2, human CD40; test: Binding to Cos-7 cells transiently transfected with human CD40 cDNA, fluorescence microscopy; type: cell-based; conditions: 250 nM biotinylated protein, 30 min at 0° C.
Procedure: Cell culture and fluorescence microscopy. The murine macrophage cell line ANA1 was kindly provided by H. Wagner (Munich, Germany). ANA-1 cells were cultured in VLE-RPMI 1640 (Biochrom), supplemented with 10% FCS, 2 mM L-glutamine and antibiotics. For fluorescence microscopy, ANA1 cells were either stimulated with LPS (20 μg/ml, Sigma, Germany), or kept in an LPS-free medium (mock treatment) for 7 h. After stimulation, cells were harvested and incubated with 100 nM biotinylated Hsp70, biotinylated GST, or Hsp70/peptide C-biotin complex for 30 min at 0° C. in VLE-RPMI 1640. After incubation cells were processed for staining with streptavidin-TRITC (Sigma, Germany), fixed with paraformaldehyde and analyzed by fluorescence microscopy (Axiovert 35, Zeiss) as described (Sondermann et al., 2000). […] Twenty-four h post-transfection cells were incubated with 250 nM biotinylated Hsp70, biotinylated GST or Hsp70/peptide C-biotin complex for 30 min at 0° C. in DMEM, fixed, stained with streptavidin-TRITC (Sigma, Germany), and analyzed by fluorescence microscopy as described (Sondermann et al., 2000, idem). […] Stably transfected cell lines were analyzed by immunoblotting for CD40 expression using an anti-CD40 antibody (CSA180, Stressgen). […]
Mock-treated and LPS-stimulated ANA-1 cells were analyzed for their expression of CD40. […]

Hsp70 = conditions: Greene et al., 1995; read-out: affinity of peptide C for Hsp70; cited from earlier work

Substance: C70: Recombinant C-terminal peptide-binding domain of human Hsp70, residues 382-641
- competition for the binding of full-length Hsp70 to CD40 ([1]; ADP, 5-fold molar excess of competitor): neither the C-terminal Hsp70 domain (C70) nor DnaK had a significant effect on binding
- uptake of fluorescent (FITC) peptide C into HEK293T-CD40 cells (human CD40 [2]): did not result in a peptide signal above background

Substance: Hsc70: Endogenous mammalian Hsp70 family member in Hela-cell lysates
- binding to GST-CD40 from Hela-cell lysates [3]: bound to GST-CD40 in a concentration dependent manner

Substance: GCEVFGLGWRSYKH [peptide C, reference compound]
- binding to CD40-transfected Cos-7 cells (human CD40 [4]): no binding above background
- effect of peptide C on binding of Hsp70-ADP to CD40 ([1]; 5- to 50-fold excess of peptide C (15-150 μM), ADP): increased dramatically
- effect of peptide C on binding of DnaK to CD40 ([1]; 10-fold molar excess of peptide C): almost completely abolishes the binding of DnaK to CD40
- competition of peptide C with the Hsp70-CD40 interaction ([1]; molar excess of peptide C over Hsp70, ADP): did not compete with the interaction
- ka of the saturable effect of peptide on Hsp70-ADP binding to CD40 ([1]; titration of peptide C, 3 μM Hsp70, ADP): ~30 µM
- Kd (Hsp70): 5 to 10 µM

Substance: FITC-GCEVFGLGWRSYKH ({FITC}-GCEVFGLGWRSYKH) [reference compound]
- uptake of fluorescent (FITC) peptide C into HEK293T-CD40 cells (human CD40 [2]): No staining above background
